The results in this text go back to patent US8778966B2, “Quinolinone derivatives as PARP and tank inhibitors” (Janssen Pharmaceutica, NV, priority 2007, dated 2014).

One data set concerns tubulin. Nature of the data set: Tubulin polymerization assay. The format is biochemical. The following applies: tested at 20 μM and 5 μM. Also noted: key: a compound showing 0 to 50% inhibition at 20 μM is reported as score 1; Score 2 compounds are defined as compound showing more than 50% inhibition at 20 μM and less than 50% inhibition at 5 μM; a compound showing more than 50% inhibition at 5 μM is reported as score 3. Put shortly:
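Cytoskeleton kit tubulin was run in a 10 µl final volume at 37 °C, with fluorescence read every minute for 1 h. Polymerization was taken as the maximum slope (4-point linear regression) and expressed as % of no-compound control. Compounds were tested at 20 µM, then at 5 µM if inhibition exceeded 50%, and scored by % inhibition.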
For `CCc1cc2c(OC)cc(C(C)(C#N)Cc3nc(OC)cc(OC)n3)cc2[nH]c1=O` (single isomer, unassigned) [Compound 230], the tubulin polymerisation score is given as 1 (a compound showing 0 to 50% inhibition at 20 μM is reported as score 1).

Turning to `CCc1cc2ccc([C@@](C)(C#N)CCOc3ccc(C#N)cc3)cc2[nH]c1=O` (single isomer, unassigned) [Compound 273], the tubulin polymerisation score worked out at 2.

In turn, `CCc1cc2ccc([C@](C)(C#N)Cc3cccc(/C=C/S(C)(=O)=O)c3)cc2[nH]c1=O` (single isomer, unassigned) [Compound 291] showed a tubulin polymerisation score of 2.

`CCc1cc2ccc([C@@](C)(C#N)Cc3cccc(C#CCO)c3)cc2[nH]c1=O` (single isomer, unassigned) [Compound 295]: the tubulin polymerisation score is given as 1 (a compound showing 0 to 50% inhibition at 20 μM is reported as score 1).

`CCc1cc2ccc([C@](C)(C#N)Cc3cccc(C#CCO)c3)cc2[nH]c1=O` (single isomer, unassigned) [Compound 296]: the tubulin polymerisation score stood at 2.

Consider `CCc1cc2ccc([C@@](C)(C#N)Cc3cc(OC)nc(C)n3)cc2[nH]c1=O` (single isomer, unassigned) [Compound 361], for which the tubulin polymerisation score is given as 1 (a compound showing 0 to 50% inhibition at 20 μM is reported as score 1).

With `CCc1cc2ccc([C@](C)(C#N)Cc3cc(OC)nc(C)n3)cc2[nH]c1=O` (single isomer, unassigned) [Compound 362], the tubulin polymerisation score is recorded as 2.

The compound `Cc1cc2ccc([C@](C)(C#N)C3CCc4ccccc43)cc2[nH]c1=O` (single isomer, unassigned) [Compound 386] gave a tubulin polymerisation score of 2.

The compound `CCc1cc2ccc(C(C)(C#N)Cc3cccc(OCCCC#N)c3)cc2[nH]c1=O` (stereo not drawn) [Compound 194] displayed a tubulin polymerisation score of 2.

With `CCc1cc2ccc(C(C)(C#N)Cc3cccc(OCCC#N)c3)cc2[nH]c1=O` (stereo not drawn) [Compound 195], the tubulin polymerisation score is 1 (a compound showing 0 to 50% inhibition at 20 μM is reported as score 1).

`C#CCOc1cccc(CC(C)(C#N)c2ccc3cc(CC)c(=O)[nH]c3c2)c1` (stereo not drawn) [Compound 196] displayed a tubulin polymerisation score of 2.

With `CCc1cc2ccc(C(C)(C#N)Cc3nc(Cl)cc(OC)n3)cc2[nH]c1=O` (stereo not drawn) [Compound 202], the tubulin polymerisation score came to 2.

As to `CCc1cc2ccc(C(C)(C#N)CN3CCN(c4ccccn4)CC3)cc2[nH]c1=O` (stereo not drawn) [Compound 233], the tubulin polymerisation score is on record as 1 (a compound showing 0 to 50% inhibition at 20 μM is reported as score 1).

For `Cc1nc(-c2ccccc2)sc1CC(C)(C#N)c1ccc2cc(C)c(=O)[nH]c2c1` (stereo not drawn) [Compound 235], the tubulin polymerisation score is 1 (a compound showing 0 to 50% inhibition at 20 μM is reported as score 1).

Consider `CCc1cc2ccc(C(C)(C#N)Cc3cccc(C(=O)OC(C)C)c3)cc2[nH]c1=O` (stereo not drawn) [Compound 255], for which the tubulin polymerisation score came to 2.

On to `CCc1cc2ccc(C(C)(C#N)Cc3cc(Br)cc(N(C)C)c3)cc2[nH]c1=O` (stereo not drawn) [Compound 260], for which the tubulin polymerisation score is 2.

Regarding `CCOc1cccc(CC(C)(C#N)c2ccc3cc(CC)c(=O)[nH]c3c2)c1` (stereo not drawn) [Compound 285], the tubulin polymerisation score is reported as 2.

In turn, `CCc1cc2ccc(C(C)(C#N)Cc3cc(OC)c(OC)c(OC)c3)cc2[nH]c1=O` (stereo not drawn) [Compound 289] displayed a tubulin polymerisation score of 2.

In the case of `CCc1cc2ccc(C(C)(C#N)CN(C)Cc3ccc(C#N)cc3)cc2[nH]c1=O` (stereo not drawn) [Compound 300], the tubulin polymerisation score was 1 (a compound showing 0 to 50% inhibition at 20 μM is reported as score 1).

For `CCc1cc2ccc(C(C)(C#N)Cc3nc(C#N)cc(OC)n3)cc2[nH]c1=O` (stereo not drawn) [Compound 313], the tubulin polymerisation score came out at 2.

Consider `CCc1cc2ccc(C(C)(C#N)Cc3cc(C#N)nc(OC)c3)cc2[nH]c1=O` (stereo not drawn) [Compound 314], for which the tubulin polymerisation score is recorded as 1 (a compound showing 0 to 50% inhibition at 20 μM is reported as score 1).

For `CCc1cc2ccc(C(C)(C#N)Cc3nc(C#N)cc(N(C)C)n3)cc2[nH]c1=O` (stereo not drawn) [Compound 318], the tubulin polymerisation score is listed as 1 (a compound showing 0 to 50% inhibition at 20 μM is reported as score 1).

`CCc1cc2ccc(C(C)(C#N)Cc3cc(C#N)nc(C)n3)cc2[nH]c1=O` (stereo not drawn) [Compound 319] had a tubulin polymerisation score of 2.

`CCc1cc2ccc(C(C)(C#N)Cc3cc(Cl)nc(N(C)C)c3)cc2[nH]c1=O` (stereo not drawn) [Compound 323]: the tubulin polymerisation score was 2.

The compound `CCc1cc2ccc(C(C)(C#N)Cc3cccc(NC)n3)cc2[nH]c1=O` (stereo not drawn) [Compound 339] registered a tubulin polymerisation score of 2.

Compound `CCc1cc2ccc(C(C)(C#N)Cc3cc(OC)nc(OC)c3)cc2[nH]c1=O` (stereo not drawn) [Compound 350] came in with a tubulin polymerisation score of 2.

`CCc1cc2ccc(C(C)(C#N)Cc3nc(OC)cc(N(C)C)n3)cc2[nH]c1=O` (stereo not drawn) [Compound 355] displayed a tubulin polymerisation score of 2.

With `CCc1cc2ccc(C(C)(C#N)CN3CCC(c4ccccc4)CC3)cc2[nH]c1=O` (stereo not drawn) [Compound 375], the tubulin polymerisation score is 1 (a compound showing 0 to 50% inhibition at 20 μM is reported as score 1).

Regarding `CCc1cc2ccc(C(C)(C#N)CN3CCN(c4ccc(C#N)cn4)CC3)cc2[nH]c1=O` (stereo not drawn) [Compound 377], the tubulin polymerisation score is 1 (a compound showing 0 to 50% inhibition at 20 μM is reported as score 1).

In turn, `CCc1cc2ccc(C(C)(C#N)Cc3cccc4[nH]ccc34)cc2[nH]c1=O` (stereo not drawn) [Compound 379] displayed a tubulin polymerisation score of 2.

Tested on in a further data set: not given
Assay: not given
Details: not given
The compound `CCc1cc2ccc(C(C)(C#N)Cc3nc(C#N)cc(OC)n3)cc2[nH]c1=O` (single isomer, unassigned) [Compound 204] gave a melting point of 180 °C.

Compound `CCc1cc2ccc(C(C)(C#N)Cc3cccc(OCCCN4CCNCC4)c3)cc2[nH]c1=O` (stereo not drawn) [Compound 25] returned a melting point of 50 °C.

`CCc1cc2ccc(C(C#N)(Cc3ccccc3)c3ccc(C#N)cc3)cc2[nH]c1=O` (stereo not drawn) [Compound 26] came in with a melting point of 255 °C.

Compound `CCc1cc2ccc(C(C#N)(Cc3ccccc3)c3ccccc3)cc2[nH]c1=O` (stereo not drawn) [Compound 27] returned a melting point of 229 °C.

Regarding `CCc1cc2ccc(C(C#N)(Cc3ccccc3)C3CC3)cc2[nH]c1=O` (stereo not drawn) [Compound 29], the melting point worked out at 186 °C.

In turn, `CCc1cc2ccc(C(C#N)(Cc3ccccc3)C(C)C)cc2[nH]c1=O` (stereo not drawn) [Compound 30] yielded a melting point of 234 °C.

The compound `CCCC(C#N)(Cc1ccccc1)c1ccc2cc(CC)c(=O)[nH]c2c1` (stereo not drawn) [Compound 31] returned a melting point of 210 °C.

`CCc1cc2ccc(C(C)(C#N)Cc3cc(OC)ccc3F)cc2[nH]c1=O` (stereo not drawn) [Compound 171]: the melting point is 160 °C.

In turn, `CCc1cc2ccc(C(C)(C#N)Cc3cccc(-c4ccc[nH]4)c3)cc2[nH]c1=O` (stereo not drawn) [Compound 176] gave a melting point of 194 °C.

For `CCc1cc2ccc(C(C)(C#N)Cc3cccc(CCS(C)(=O)=O)c3)cc2[nH]c1=O` (stereo not drawn) [Compound 178], the melting point amounted to 150 °C.

On to `CCc1cc2ccc(C(C)(C#N)Cc3cccc(/C=N/OC)c3)cc2[nH]c1=O` (stereo not drawn) [Compound 185], for which the melting point came out at 170 °C.

The compound `CCc1cc2ccc(C(C)(C#N)Cc3cccc(OCCCC#N)c3)cc2[nH]c1=O` (stereo not drawn) [Compound 194] gave a melting point of 148 °C.

For the compound `CCc1cc2ccc(C(C)(C#N)Cc3cccc(OCCC#N)c3)cc2[nH]c1=O` (stereo not drawn) [Compound 195], the melting point worked out at 161 °C.

Compound `C#CCOc1cccc(CC(C)(C#N)c2ccc3cc(CC)c(=O)[nH]c3c2)c1` (stereo not drawn) [Compound 196] returned a melting point of 141 °C.

For `CCc1cc2ccc(C(C)(C#N)Cc3cccc(OCCS(C)(=O)=O)c3)cc2[nH]c1=O` (stereo not drawn) [Compound 201], the melting point amounted to 55 °C.

For `CCc1cc2ccc(C(C)(C#N)Cc3nc(Cl)cc(OC)n3)cc2[nH]c1=O` (stereo not drawn) [Compound 202], the melting point was 162 °C.

`CCc1cc2ccc(C(C)(C#N)Cc3nc(N(C)C)cc(N(C)C)n3)cc2[nH]c1=O` (stereo not drawn) [Compound 205]: the melting point turned out to be 194 °C.

The compound `CCc1cc2ccc(C(C)(C#N)Cc3cccc(N4CCC(N(C)C)C4)n3)cc2[nH]c1=O` (stereo not drawn) [Compound 209] came in with a melting point of 154 °C.

Consider `CCc1cc2ccc(C(C)(C#N)Cc3cccc(C#Cc4cncn4C)n3)cc2[nH]c1=O` (stereo not drawn) [Compound 217], for which the melting point was determined as 111 °C.

Consider `CCc1cc2ccc(C(C)(C#N)Cc3cccc(N(C)CCc4ccccc4)n3)cc2[nH]c1=O.Cl` (stereo not drawn) [Compound 220], for which the melting point was 99 °C.

The compound `CCc1cc2ccc(C(C)(C#N)Cc3cccc(C#N)[n+]3[O-])cc2[nH]c1=O` (stereo not drawn) [Compound 228] came in with a melting point of 121 °C.

On to `CCc1cc2c(OC)cc(C(C)(C#N)Cc3nc(OC)cc(OC)n3)cc2[nH]c1=O` (stereo not drawn) [Compound 229], for which the melting point came to 180 °C.

`CCc1cc2ccc(C(C)(C#N)CN3CCN(c4ccccn4)CC3)cc2[nH]c1=O` (stereo not drawn) [Compound 233] registered a melting point of 209 °C.

Compound `CCc1cc2ccc(C(C)(C#N)Cc3cccc4c3CCN4)cc2[nH]c1=O` (stereo not drawn) [Compound 237] had a melting point of 210 to 211 °C.

The melting point is the temperature of the solid-liquid transition.
